Columns and labels:
[1] = biological target: T1, human 15-PGDH (Homo sapiens, UniProt P15428); assay: Evaluation of 15-PGDH inhibitory activity (fluorescence enzyme assay, NAD+/PGE2); format: biochemical; conditions: human 15-PGDH enzyme, fluorescence Vmax
T1 construct: purchased R&D System 5660-DH
T1 sequence (P15428 1-266): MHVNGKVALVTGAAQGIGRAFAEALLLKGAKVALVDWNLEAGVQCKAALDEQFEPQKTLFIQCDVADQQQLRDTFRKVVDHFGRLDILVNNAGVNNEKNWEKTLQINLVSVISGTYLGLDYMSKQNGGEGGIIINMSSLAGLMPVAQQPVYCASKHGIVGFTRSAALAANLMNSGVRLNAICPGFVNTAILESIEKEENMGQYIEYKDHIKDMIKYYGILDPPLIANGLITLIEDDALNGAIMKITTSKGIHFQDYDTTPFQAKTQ
Method: 15-PGDH inhibition activity of Example compounds was measured as follows. 6.7 ng of human 15-PGDH (R&D System# 5660-DH) enzyme (10 µL) was added to a black 96 well plate, 60 µL of buffer (50 mM Tris-HCl, pH 7.5, 0.01% Tween 20) was added, and 10 µL of 200 µM β-Nicotinamide adenine dinucleotide sodium salt (Sigma, Cat# N0632-5G) was added. 10 µL of (10x) compound solution in DMSO was added and reacted for 10 minutes at room temperature.

[2] = tested on: A549 cells; assay: Measurement of PGE2-increasing activity in A549 cells (IL-1β stimulated, PGE2 quantified in supernatant); format: cell-based; conditions: Homo sapiens, 24 h; concentration of 1 µM of each compound; IL-1β treated A549 cells; read-out: Increased PGE2 production in A549 cells
Outline: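 A549 cells grown 24 h in F12K with 10% FBS, then switched to serum-free medium with or without IL-1β and compound (0.1% DMSO final). After 24 h at 37 °C, 5% CO2, supernatant PGE2 quantified by immunoassay.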

Compound: O=C(c1cnn2c(-c3ccc(-n4cc([N+](=O)[O-])cn4)nc3)cccc12)N1CCCCC1 [Example 355, (7-(6-(4-nitro-1H-pyrazol-1-yl)pyridin-3-yl)pyrazolo[1,5-a]pyridin-3-yl)(piperidin-1-yl)methanone]
- IC50 [1]: ≤ 100 nM
- fold induction at 1 µM [2]: > 1.5

Compound: CN1CCC(NC(=O)c2cncc(-c3cccc4c(C(=O)N5CCCCC5)cnn34)c2)CC1 [Example 47, N-(1-methylpiperidin-4-yl)-5-(3-(piperidine-1-carbonyl)pyrazolo [1,5-a]pyridin-7-yl)nicotinamide]
- IC50 [1]: ≤ 100 nM
- fold induction at 1 µM [2]: > 1.5

Compound: O=C(O)c1ncc(-c2cccc3c(C(=O)N4CCCCC4)cnn23)cc1F [Example 243, 3-fluoro-5-[3-(piperidine-1-carbonyl)pyrazolo[1,5-a]pyridin-7-yl]pyridine-2-carboxylic acid]
- IC50 [1]: ≤ 100 nM
- fold induction at 1 µM [2]: > 1.5

Compound: O=C(c1cnn2c(-c3ccc4cc[nH]c(=O)c4c3)cccc12)N1CCCCC1 [Example 134, 7-(3-(piperidine-1-carbonyl)pyrazolo[1,5-a]pyridin-7-yl)isoquinolin-1(2H)-one]
- IC50 [1]: ≤ 100 nM
- fold induction at 1 µM [2]: > 1.5

Compound: Cc1nc(-c2cc(N)cc(-c3cccc4c(C(=O)N5CCCCC5)cnn34)c2)no1 [Example 343, (7-(3-amino-5-(5-methyl-1,2,4-oxadiazol-3-yl)phenyl)pyrazolo[1,5-a]pyridin-3-yl)(piperidin-1-yl)methanone]
- IC50 [1]: ≤ 100 nM
- fold induction at 1 µM [2]: > 1.5

Compound: O=C1NCCc2ccc(-c3cccc4c(C(=O)N5CCC(F)CC5)cnn34)cc21 [Example 154, 7-(3-(4-fluoropiperidine-1-carbonyl)pyrazolo[1,5-a]pyridin-7-yl)-3,4-dihydroisoquinolin-1(2H)-one]
- IC50 [1]: ≤ 100 nM
- fold induction at 1 µM [2]: > 1.5

Compound: O=C(c1cnn2c(-c3ccc(Cl)nc3)cccc12)N1CCCCC1 [Example 314, (7-(6-chloropyridin-3-yl)pyrazolo[1,5-a]pyridin-3-yl)(piperidin-1-yl)methanone]
- IC50 [1]: ≤ 100 nM
- fold induction at 1 µM [2]: > 1.5

Compound: O=C(c1cccc(-c2cccc3c(C(=O)N4CCCCC4)cnn23)c1)N1CCOCC1 [Example 26, (7-(3-(morpholine-4-carbonyl)phenyl)pyrazolo[1,5-a]pyridin-3-yl)(piperidin-1-yl)methanone]
- IC50 [1]: ≤ 100 nM
- fold induction at 1 µM [2]: > 1.5

Compound: COC(=O)C1CN(c2ccc(-c3cccc4c(C(=O)N5CCCCC5)cnn34)cn2)C1 [Example 219, methyl 1-(5-(3-(piperidine-1-carbonyl)pyrazolo[1,5-a]pyridin-7-yl)pyridin-2-yl)azetidine-3-carboxylate]
- IC50 [1]: ≤ 100 nM
- fold induction at 1 µM [2]: > 1.5

Compound: O=C(c1cncc(-c2cccc3c(C(=O)N4CCCCC4)cnn23)c1)N1CCC2(CC1)COC2 [Example 226, 2-oxa-7-azaspiro[3.5]nonan-7-yl-[5-[3-(piperidine-1-carbonyl)pyrazolo[1,5-a]pyridin-7-yl]-3-pyridyl]methanone]
- IC50 [1]: ≤ 100 nM
- fold induction at 1 µM [2]: > 1.5

Compound: Nc1cccc(-c2cccc3c(C(=O)N4CCCCC4)cnn23)c1 [Example 7, (7-(3-aminophenyl)pyrazolo[1,5-a]pyridin-3-yl)(piperidin-1-yl)methanone]
- IC50 [1]: ≤ 100 nM
- fold induction at 1 µM [2]: > 1.5

Compound: O=C(Cc1cncc(F)c1)Nc1ccc(-c2cccc3c(C(=O)N4CCCCC4)cnn23)cn1 [Example 409, 2-(5-fluoropyridin-3-yl)-N-(5-(3-(piperidine-1-carbonyl)pyrazolo[1,5-a]pyridin-7-yl)pyridin-2-yl)acetamide]
- IC50 [1]: ≤ 100 nM
- fold induction at 1 µM [2]: > 1.5

Compound: O=C(c1cnn2c(-c3cc(Cl)cnc3F)cccc12)N1CCCCC1 [Example 283, (7-(5-chloro-2-fluoropyridin-3-yl)pyrazolo[1,5-a]pyridin-3-yl)(piperidin-1-yl)methanone]
- IC50 [1]: ≤ 100 nM
- fold induction at 1 µM [2]: < 1.5

Compound: O=C(Nc1cncc(-c2cccc3c(C(=O)N4CCCCC4)cnn23)c1)c1cncc(F)c1 [Example 335, 5-fluoro-N-(5-(3-(piperidine-1-carbonyl)pyrazolo[1,5-a]pyridin-7-yl)pyridin-3-yl)nicotinamide]
- IC50 [1]: ≤ 100 nM
- fold induction at 1 µM [2]: > 1.5

Compound: O=C(Nc1ccc(-c2cccc3c(C(=O)N4CCCCC4)cnn23)cc1)c1cccnc1 [Example 101, N-(4-(3-(piperidine-1-carbonyl)pyrazolo[1,5-a]pyridin-7-yl)phenyl)nicotinamide]
- IC50 [1]: ≤ 100 nM
- fold induction at 1 µM [2]: > 1.5

Compound: O=C(c1cnn2c(-c3cnn(Cc4noc(=O)[nH]4)c3)cccc12)N1CCCCC1 [Example 396, 3-((4-(3-(piperidine-1-carbonyl)pyrazolo[1,5-a]pyridin-7-yl)-1H-pyrazol-1-yl)methyl)-1,2,4-oxadiazol-5(4H)-one]
- IC50 [1]: ≤ 100 nM
- fold induction at 1 µM [2]: > 1.5

Compound: O=C1NCc2ccc(-c3cccc4c(C(=O)N5CCC(F)(F)CC5)cnn34)cc21 [Example 234, 6-(3-(4,4-difluoropiperidine-1-carbonyl)pyrazolo[1,5-a]pyridin-7-yl)isoindolin-1-one]
- IC50 [1]: ≤ 100 nM
- fold induction at 1 µM [2]: > 1.5

Compound: O=C(c1cnn2c(-c3ccc(N4CC(F)(F)C4)nc3)cccc12)N1CCCCC1 [Example 209, (7-(6-(3,3-difluoroazetidin-1-yl)pyridin-3-yl)pyrazolo[1,5-a]pyridin-3-yl)(piperidin-1-yl)methanone]
- IC50 [1]: ≤ 100 nM
- fold induction at 1 µM [2]: > 1.5

Compound: O=C(c1cnn2c(-c3ccc(F)c(-c4noc(=O)[nH]4)c3)cccc12)N1CCCCC1 [Example 275, 3-[2-fluoro-5-[3-(piperidine-1-carbonyl)pyrazolo[1,5-a]pyridin-7-yl]phenyl]-4H-1,2,4-oxadiazol-5-one]
- IC50 [1]: ≤ 100 nM
- fold induction at 1 µM [2]: > 1.5

Compound: CNc1nn2c(-c3ccc4c(c3)C(=O)NCC4)cccc2c1C(=O)N1CCCCC1 [Example 160]
- IC50 [1]: > 1000 nM
- fold induction at 1 µM [2]: < 1.5

Compound: O=C(c1cnn2c(-c3cc(-c4noc(=O)[nH]4)cc([N+](=O)[O-])c3)cccc12)N1CCCCC1 [Example 329, 3-(3-nitro-5-(3-(piperidine-1-carbonyl)pyrazolo[1,5-a]pyridin-7-yl)phenyl)-1,2,4-oxadiazol-5(4H)-one]
- IC50 [1]: ≤ 100 nM
- fold induction at 1 µM [2]: > 1.5

Compound: Cc1nnc(-c2ncc(-c3cccc4c(C(=O)N5CCCCC5)cnn34)cc2F)o1 [Example 379, [7-[5-fluoro-6-(5-methyl-1,3,4-oxadiazol-2-yl)-3-pyridyl]pyrazolo[1,5-a]pyridin-3-yl]-(1-piperidyl)methanone]
- IC50 [1]: ≤ 100 nM
- fold induction at 1 µM [2]: > 1.5

Compound: Cn1nccc1-c1cnc(F)c(-c2cccc3c(C(=O)N4CCCCC4)cnn23)c1 [Example 325, (7-(2-fluoro-5-(1-methyl-1H-pyrazol-5-yl)pyridin-3-yl)pyrazolo[1,5-a]pyridin-3-yl)(piperidin-1-yl)methanone]
- IC50 [1]: ≤ 100 nM
- fold induction at 1 µM [2]: > 1.5

Compound: O=C(c1cnn2c(-c3ccc(-c4nnco4)cc3)cccc12)N1CCCCC1 [Example 350, [7-[4-(1,3,4-oxadiazol-2-yl)phenyl]pyrazolo[1,5-a]pyridin-3-yl]-(1-piperidyl)methanone]
- IC50 [1]: ≤ 100 nM
- fold induction at 1 µM [2]: > 1.5

Compound: C[C@@H]1CCCN(C(=O)c2cnn3c(-c4ccc5c(c4)C(=O)NC5)cccc23)C1 [Example 385, (R)-6-(3-(3-methylpiperidine-1-carbonyl)pyrazolo[1,5-a]pyridin-7-yl)isoindolin-1-one]
- IC50 [1]: ≤ 100 nM
- fold induction at 1 µM [2]: > 1.5

Compound: O=C(c1cnn2c(-c3cccc(-c4nnn[nH]4)c3)cccc12)N1CCCCC1 [Example 113, (7-(3-(1H-tetrazol-5-yl)phenyl)pyrazolo[1,5-a]pyridin-3-yl)(piperidin-1-yl)methanone]
- IC50 [1]: ≤ 100 nM
- fold induction at 1 µM [2]: > 1.5

Compound: O=C(c1cnn2c(-c3ccc(N4CCOCC4)nc3)cccc12)N1CCCCC1 [Example 108, (7-(6-morpholinopyridin-3-yl)pyrazolo[1,5-a]pyridin-3-yl)(piperidin-1-yl)methanone]
- IC50 [1]: ≤ 100 nM
- fold induction at 1 µM [2]: > 1.5

Compound: O=C(c1cnn2c(-c3ccc(N4CCOC4=O)nc3)cccc12)N1CCCC(F)C1 (centres unmarked) [Example 383, 3-(5-(3-(3-fluoropiperidine-1-carbonyl)pyrazolo[1,5-a]pyridin-7-yl)pyridin-2-yl)oxazolidin-2-one]
- IC50 [1]: ≤ 100 nM
- fold induction at 1 µM [2]: > 1.5

Compound: CC(C)NC(=O)c1ccc(-c2cccc3c(C(=O)N4CCCCC4)cnn23)cc1 [Example 60, N-isopropyl-4-(3-(piperidine-1-carbonyl)pyrazolo[1,5-a]pyridin-7-yl)benzamide]
- IC50 [1]: ≤ 100 nM
- fold induction at 1 µM [2]: > 1.5

Compound: O=C(c1cnn2c(-c3ccc(N4CCC5(CCC5)CC4)nc3)cccc12)N1CCCCC1 [Example 222, (7-(6-(7-azaspiro[3.5]nonan-7-yl)pyridin-3-yl)pyrazolo[1,5-a]pyridin-3-yl)(piperidin-1-yl)methanone]
- IC50 [1]: ≤ 100 nM
- fold induction at 1 µM [2]: > 1.5

Compound: O=C(NC1CNC1)c1cncc(-c2cccc3c(C(=O)N4CCCCC4)cnn23)c1 [Example 200, N-(azetidin-3-yl)-5-(3-(piperidine-1-carbonyl)pyrazolo[1,5-a]pyridin-7-yl)nicotinamide]
- IC50 [1]: ≤ 100 nM
- fold induction at 1 µM [2]: > 1.5
